In experiment [1] the target is LTB4 (Homo sapiens, UniProt Q15722). In words: biochemical.
The target of experiment [2] is LTD4 (Homo sapiens, UniProt Q9Y271). In words: biochemical.
In experiment [3] the target is TXA2 (Homo sapiens, UniProt P21731). In words: biochemical.
Experiment [4] addresses PAF (Homo sapiens, UniProt P25105). Kind of experiment: biochemical.
Experiment [5] concerns the target TRH (Homo sapiens, UniProt P34981). Kind of experiment: biochemical.
Experiment [6] has as its target Oxytocin (Homo sapiens, UniProt P30559). Kind of experiment: biochemical.
In experiment [7] the target is AT1 Angiotensin (Homo sapiens, UniProt P30556). In words: biochemical.
Sequence of AT1 Angiotensin (P30556 whole entry): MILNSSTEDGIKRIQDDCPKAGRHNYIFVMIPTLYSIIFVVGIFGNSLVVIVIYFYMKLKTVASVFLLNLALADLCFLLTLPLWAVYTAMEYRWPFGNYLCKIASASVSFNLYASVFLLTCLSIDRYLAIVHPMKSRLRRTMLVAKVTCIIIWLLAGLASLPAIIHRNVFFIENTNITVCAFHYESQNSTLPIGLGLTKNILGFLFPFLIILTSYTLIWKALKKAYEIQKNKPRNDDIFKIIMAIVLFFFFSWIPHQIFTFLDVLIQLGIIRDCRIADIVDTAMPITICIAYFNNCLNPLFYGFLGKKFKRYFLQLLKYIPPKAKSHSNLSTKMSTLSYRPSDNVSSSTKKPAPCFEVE
For experiment [8], the target named is Bradykinin 2 (Homo sapiens, UniProt P30411). In words: biochemical.
Sequence of Bradykinin 2 (P30411 whole entry): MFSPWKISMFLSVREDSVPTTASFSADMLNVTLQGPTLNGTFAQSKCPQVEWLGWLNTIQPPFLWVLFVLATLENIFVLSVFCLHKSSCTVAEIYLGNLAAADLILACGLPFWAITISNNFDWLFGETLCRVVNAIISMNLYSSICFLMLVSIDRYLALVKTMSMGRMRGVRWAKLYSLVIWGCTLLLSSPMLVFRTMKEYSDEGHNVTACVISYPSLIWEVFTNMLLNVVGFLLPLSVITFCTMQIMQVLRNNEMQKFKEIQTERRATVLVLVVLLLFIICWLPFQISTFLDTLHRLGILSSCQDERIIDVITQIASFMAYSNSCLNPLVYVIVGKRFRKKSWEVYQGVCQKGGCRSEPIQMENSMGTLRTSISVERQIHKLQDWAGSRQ
Experiment [9] has as its target CCKA (Homo sapiens, UniProt P32238). Kind of experiment: biochemical.
Experiment [10] has as its target NK1 (Homo sapiens, UniProt P25103). Kind of experiment: biochemical.
For experiment [11], the target named is NK2 (Homo sapiens, UniProt P21452). In words: biochemical.
The target of experiment [12] is NK3 (Homo sapiens, UniProt P29371). Kind of experiment: biochemical.
Experiment [13] has as its target Choline Acetyltransferase (Homo sapiens, UniProt P28329). In words: biochemical.
The target in experiment [14] is RARγ Retinoid (Homo sapiens, UniProt P13631). In words: biochemical.
Sequence of RARγ Retinoid (P13631 whole entry): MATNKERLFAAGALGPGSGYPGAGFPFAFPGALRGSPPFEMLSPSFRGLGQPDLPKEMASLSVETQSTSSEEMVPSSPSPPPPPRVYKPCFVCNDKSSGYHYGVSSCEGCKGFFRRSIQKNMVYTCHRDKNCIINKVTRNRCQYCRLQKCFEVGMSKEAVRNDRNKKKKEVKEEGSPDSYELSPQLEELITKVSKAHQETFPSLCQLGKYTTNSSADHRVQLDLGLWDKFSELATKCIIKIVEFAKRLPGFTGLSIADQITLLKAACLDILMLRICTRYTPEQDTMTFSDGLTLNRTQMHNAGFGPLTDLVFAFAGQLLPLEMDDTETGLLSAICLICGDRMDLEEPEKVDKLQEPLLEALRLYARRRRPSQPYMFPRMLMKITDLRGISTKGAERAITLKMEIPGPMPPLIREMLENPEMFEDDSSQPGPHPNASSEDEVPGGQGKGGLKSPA
Experiment [15] concerns the target RXRα Retinoid (Homo sapiens, UniProt P19793). Kind of experiment: biochemical.
Experiment [16] addresses AchE (Homo sapiens, UniProt P22303). In words: Selectivity: AchE.
Experiment [17] has as its target MAO-A (Homo sapiens, UniProt P21397). Kind of experiment: Selectivity: MAO-A.
Experiment [18] addresses H1 Histamine (Homo sapiens, UniProt P35367). Kind of experiment: Selectivity: H1 Histamine.
The target in experiment [19] is H2 Histamine (Homo sapiens, UniProt P25021). In words: Selectivity: H2 Histamine.
The target in experiment [20] is M2 Muscarinic (Homo sapiens, UniProt P08172). Kind of experiment: Selectivity: M2 Muscarinic.
Sequence of M2 Muscarinic (P08172 whole entry): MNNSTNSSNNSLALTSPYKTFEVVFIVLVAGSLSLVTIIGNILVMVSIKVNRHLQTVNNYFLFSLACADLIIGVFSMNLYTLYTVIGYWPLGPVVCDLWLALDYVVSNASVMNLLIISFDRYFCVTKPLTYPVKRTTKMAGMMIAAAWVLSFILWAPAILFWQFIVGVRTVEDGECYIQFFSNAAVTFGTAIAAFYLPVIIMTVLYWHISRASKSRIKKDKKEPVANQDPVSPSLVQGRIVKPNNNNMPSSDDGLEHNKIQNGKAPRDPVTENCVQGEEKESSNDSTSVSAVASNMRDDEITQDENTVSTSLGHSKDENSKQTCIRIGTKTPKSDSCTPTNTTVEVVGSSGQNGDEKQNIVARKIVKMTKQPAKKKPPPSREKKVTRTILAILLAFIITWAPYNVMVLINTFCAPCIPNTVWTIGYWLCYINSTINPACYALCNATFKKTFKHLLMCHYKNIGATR
Experiment [21] addresses N-type Ca2+ Channel (Homo sapiens, UniProt Q00975). In words: Selectivity: N-type Ca2+ Channel.
The target of experiment [22] is Serotonin Transporter (Homo sapiens, UniProt P31645). Kind of experiment: Selectivity: Serotonin Transporter.
Experiment [23] deals with rat mast cells. Kind of experiment: Selectivity: Basal Histamine Release (rat mast cells). The settings on record: Mast cell, read-out: Basal Histamine Release (rat mast cells) EC50.
In experiment [24] the target is T1, rat GnRH receptor (Rattus norvegicus, UniProt P30969).
T1 sequence (P30969 1-327): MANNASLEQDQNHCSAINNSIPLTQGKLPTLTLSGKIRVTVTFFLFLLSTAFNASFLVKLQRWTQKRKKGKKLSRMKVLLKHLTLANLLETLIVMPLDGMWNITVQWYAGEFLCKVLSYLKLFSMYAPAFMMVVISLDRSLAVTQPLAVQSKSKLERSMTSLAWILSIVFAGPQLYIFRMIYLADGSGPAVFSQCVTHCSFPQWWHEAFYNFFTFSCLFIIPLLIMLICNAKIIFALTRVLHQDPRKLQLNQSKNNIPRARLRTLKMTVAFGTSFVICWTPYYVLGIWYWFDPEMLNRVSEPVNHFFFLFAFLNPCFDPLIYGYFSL
In words: Total inositol phosphates measurement, GGH3 cells. It counts as cell-based. The note with it: PI (inositol phosphates). How it is done: In another test, accumulation of total inositol phosphates may be measured by formic acid extraction from cells, followed by separation of the phosphates on Dowex columns. Cells are split using trypsin into two 12-well plates and pre-labeled with ^3H-myoinositol ([…]-2 mCi per mL) for 16-18 hours in inositol-free medium. The medium is then aspirated and the cells rinsed with either 1×HBSS, 20 mM HEPES (pH 7.5), or serum-free DMEM, 1×HBSS, 20 mM HEPES (pH 7.5) containing agonist, and 20 mM LiCl is then added and the cells are incubated for the desired time. The medium is aspirated and the reaction stopped by addition of ice-cold 10 mM formic acid, which also serves to extract cellular lipids. […] The columns are then washed with 10 mL of […] sodium formate and 5 mM borax, and total inositol phosphates are eluted with 4.5 mL 1M ammonium formate, 0.1M formic acid.
These cells have been extensively characterized previously (Kaiser et al., 1997). These cells were grown in low glucose Dulbecco's modified Eagle's medium (DMEM) containing: 100U/mL penicillin/streptomycin, 0.6 g/L G418 and 10% beat-inactivated fetal bovine serum
This cell line was provided by Dr. Stuart Sealfon, Mount Sinai Medical School New York, N.Y. These cells were grown in DMEM supplemented with 0.2 g/L G418 100 U/ml penicillin/streptomycin and 10% FBS. […]

pEC50, pKi: −log10 of the molar value. Where only a bound is given, the exact number is not on record here.

Sequence of CCKA (P32238 whole entry): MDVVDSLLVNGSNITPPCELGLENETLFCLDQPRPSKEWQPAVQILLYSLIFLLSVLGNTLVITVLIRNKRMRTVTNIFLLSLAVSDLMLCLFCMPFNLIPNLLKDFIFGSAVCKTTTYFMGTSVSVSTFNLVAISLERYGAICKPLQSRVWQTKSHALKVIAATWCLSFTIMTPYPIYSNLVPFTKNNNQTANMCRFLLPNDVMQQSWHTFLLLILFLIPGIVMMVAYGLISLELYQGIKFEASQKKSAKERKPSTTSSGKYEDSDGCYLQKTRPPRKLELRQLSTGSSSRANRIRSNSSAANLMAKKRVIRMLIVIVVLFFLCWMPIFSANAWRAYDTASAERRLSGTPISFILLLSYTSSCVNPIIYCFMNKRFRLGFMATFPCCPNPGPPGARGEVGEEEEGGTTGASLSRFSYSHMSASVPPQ
Sequence of Choline Acetyltransferase (P28329 whole entry): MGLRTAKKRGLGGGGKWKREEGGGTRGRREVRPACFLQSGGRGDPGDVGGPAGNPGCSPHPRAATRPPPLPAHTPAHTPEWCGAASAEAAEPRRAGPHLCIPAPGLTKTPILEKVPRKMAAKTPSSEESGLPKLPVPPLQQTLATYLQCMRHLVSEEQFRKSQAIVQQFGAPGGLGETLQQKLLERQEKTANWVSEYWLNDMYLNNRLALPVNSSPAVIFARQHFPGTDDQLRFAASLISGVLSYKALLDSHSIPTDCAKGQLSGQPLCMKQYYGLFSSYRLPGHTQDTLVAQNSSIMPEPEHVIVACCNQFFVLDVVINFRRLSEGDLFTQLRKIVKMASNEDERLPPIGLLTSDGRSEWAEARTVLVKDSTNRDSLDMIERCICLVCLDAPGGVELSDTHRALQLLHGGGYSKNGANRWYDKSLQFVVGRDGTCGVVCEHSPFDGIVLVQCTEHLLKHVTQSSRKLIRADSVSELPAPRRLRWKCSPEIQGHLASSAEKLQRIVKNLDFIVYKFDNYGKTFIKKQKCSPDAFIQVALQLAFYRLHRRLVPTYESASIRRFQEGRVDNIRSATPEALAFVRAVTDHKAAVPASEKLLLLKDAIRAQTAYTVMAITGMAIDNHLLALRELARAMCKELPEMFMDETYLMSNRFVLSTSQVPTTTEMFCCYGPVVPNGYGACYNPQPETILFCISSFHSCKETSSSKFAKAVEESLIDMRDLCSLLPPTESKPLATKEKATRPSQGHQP
Sequence of NK1 (P25103 whole entry): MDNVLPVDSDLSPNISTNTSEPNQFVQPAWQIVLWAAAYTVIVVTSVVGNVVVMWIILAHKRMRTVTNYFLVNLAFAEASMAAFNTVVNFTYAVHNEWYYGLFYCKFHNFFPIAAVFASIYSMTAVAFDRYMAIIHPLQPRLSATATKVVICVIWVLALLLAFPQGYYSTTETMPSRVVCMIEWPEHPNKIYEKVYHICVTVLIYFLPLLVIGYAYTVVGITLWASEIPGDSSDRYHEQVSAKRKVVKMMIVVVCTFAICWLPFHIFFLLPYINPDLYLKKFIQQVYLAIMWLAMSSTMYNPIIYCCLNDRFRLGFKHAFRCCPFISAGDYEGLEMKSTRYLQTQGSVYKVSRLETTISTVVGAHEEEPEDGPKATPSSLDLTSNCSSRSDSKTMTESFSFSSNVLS
Sequence of Oxytocin (P30559 whole entry): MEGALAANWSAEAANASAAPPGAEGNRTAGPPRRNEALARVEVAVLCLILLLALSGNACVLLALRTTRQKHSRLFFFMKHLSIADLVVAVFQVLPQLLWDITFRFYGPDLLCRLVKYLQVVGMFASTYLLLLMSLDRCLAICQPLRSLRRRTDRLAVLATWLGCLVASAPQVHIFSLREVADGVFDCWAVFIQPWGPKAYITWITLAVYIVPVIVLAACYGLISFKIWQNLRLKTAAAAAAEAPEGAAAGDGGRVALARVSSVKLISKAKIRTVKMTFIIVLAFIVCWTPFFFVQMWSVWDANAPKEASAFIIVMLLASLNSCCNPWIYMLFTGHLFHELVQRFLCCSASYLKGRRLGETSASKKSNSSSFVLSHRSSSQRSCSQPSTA
Sequence of TRH (P34981 whole entry): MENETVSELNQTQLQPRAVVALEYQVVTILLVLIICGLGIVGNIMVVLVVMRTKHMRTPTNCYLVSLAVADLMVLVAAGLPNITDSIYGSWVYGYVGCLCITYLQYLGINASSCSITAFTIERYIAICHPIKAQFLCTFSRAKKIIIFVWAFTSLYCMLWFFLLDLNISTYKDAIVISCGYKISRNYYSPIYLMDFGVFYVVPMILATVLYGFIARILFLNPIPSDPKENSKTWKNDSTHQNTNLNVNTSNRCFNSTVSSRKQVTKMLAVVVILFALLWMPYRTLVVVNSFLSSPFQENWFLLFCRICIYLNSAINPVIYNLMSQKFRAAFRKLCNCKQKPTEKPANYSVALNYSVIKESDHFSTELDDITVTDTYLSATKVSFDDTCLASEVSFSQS
Sequence of AchE (P22303 32-614): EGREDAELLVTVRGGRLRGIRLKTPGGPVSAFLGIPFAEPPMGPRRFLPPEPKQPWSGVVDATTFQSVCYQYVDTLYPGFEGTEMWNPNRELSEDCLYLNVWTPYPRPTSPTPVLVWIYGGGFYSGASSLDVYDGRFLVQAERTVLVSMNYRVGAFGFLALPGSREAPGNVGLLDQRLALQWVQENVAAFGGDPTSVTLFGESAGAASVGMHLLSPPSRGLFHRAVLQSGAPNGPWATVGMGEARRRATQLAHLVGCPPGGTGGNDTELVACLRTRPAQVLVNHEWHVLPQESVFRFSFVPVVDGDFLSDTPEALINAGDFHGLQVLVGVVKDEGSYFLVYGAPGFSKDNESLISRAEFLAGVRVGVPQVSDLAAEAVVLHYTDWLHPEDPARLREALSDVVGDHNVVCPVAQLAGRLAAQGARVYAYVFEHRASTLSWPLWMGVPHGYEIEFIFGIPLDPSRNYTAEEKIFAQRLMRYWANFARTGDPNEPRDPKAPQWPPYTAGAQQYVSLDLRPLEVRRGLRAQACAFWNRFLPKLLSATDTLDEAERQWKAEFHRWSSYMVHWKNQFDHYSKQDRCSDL
Sequence of PAF (P25105 whole entry): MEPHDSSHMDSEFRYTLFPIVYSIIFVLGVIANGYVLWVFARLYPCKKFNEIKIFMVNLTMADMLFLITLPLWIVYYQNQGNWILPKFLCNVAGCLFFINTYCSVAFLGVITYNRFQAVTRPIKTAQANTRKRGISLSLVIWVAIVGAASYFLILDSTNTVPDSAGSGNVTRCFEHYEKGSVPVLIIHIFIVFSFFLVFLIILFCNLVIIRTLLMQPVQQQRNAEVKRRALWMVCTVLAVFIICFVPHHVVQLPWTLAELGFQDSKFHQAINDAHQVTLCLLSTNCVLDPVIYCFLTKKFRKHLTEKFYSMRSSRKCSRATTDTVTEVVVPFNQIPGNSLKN

As a reminder, the pKi is −log10 of the Ki, conventionally taken in molar units. As usually defined, the pEC50 is −log10 of the EC50, conventionally taken in molar units. Take `COc1cccc(OC)c1NC(=O)c1ccc(Cc2cc3c(cc2C)C(C)(C)CCC3(C)C)o1` [Compound 20]: the negative logarithm of the Ki (pKi) in experiment [1] was less than 6.00; in [2] it was less than 6.00; in [3], less than 6.00; in experiment [4], 5.30 to 5.52; in experiment [5] it was less than 6.00; in experiment [6] it was less than 6.00. Besides, the pKi in [7] is 5.30 to 5.52; in [8], less than 6.00; in experiment [9], less than 6.00; in [10] it was less than 6.00; in experiment [11] it was less than 6.00; in [12], 5.30 to 6.00. The negative logarithm of the Ki (pKi) in experiment [13] is less than 6.00; in experiment [14], less than 5.00; in experiment [15] it was less than 5.00; in experiment [16] it was less than 6.00; in [17] it was less than 6.00; in experiment [18], less than 6.00. The pKi is approximately 6.00 in experiment [19], less than 6.00 in experiment [20], less than 6.00 in experiment [21] and less than 6.00 in experiment [22]. Further, the pEC50 in experiment [23] was less than 5.00.

Consider `Cc1cc2c(cc1Cc1ccc(C(=O)NCc3cccc(CNc4ccnc(NC[C@@H]5CCCO5)n4)c3)o1)C(C)(C)CCC2(C)C` [Compound 136], for which the Kb in [24] worked out at 0.0063 µM.
